Results from US9211242B2, “Nail-hardening cosmetic composition, use of aldehydes to harden and strengthen nails, and method for applying same” (FIABILA, priority 2009, dated 2015).

What was measured:
[1] = Aging and yellowing tests; assay type: physicochemical
Description: Various aliphatic aldehydes were incorporated into a cosmetic composition, having a formulation corresponding to example 2, at concentrations respectively of 0.001%, 0.002%, 0.005% and 0.01%.
These were methylbutyraldehyde (by way of comparison), hexanal, nonanal, trans-4-decenal, undecanal and undecylenic aldehyde.
The aging, and in particular the tendency toward yellowing, of each composition were tested. The various tests performed comprise holding for one month in an oven at 45° C. and four months in an oven at 50° C., and also exposure to “SUNTEST CPS+”, i.e. in a sealed chamber, regulated at 50° C. under a 500 Watt/m^2 UV/visible lamp for 3×10 hours.
The yellowing was evaluated relative to control compositions having identical formulations, kept at room temperature (20-25° C.), in the dark, for the same duration.

[2] = tested on: fingernails; assay: In vivo tests of efficacy on a panel of people, polish applied to nails; conditions: hexanal 0.05% by weight, panel of 22, four weeks
From the text: The composition from example 1 was the subject of in vivo tests on a panel of 22 people aged at least 30 years old, over four weeks, in order to evaluate the efficacy and tolerance. […] The polish was applied under normal usage conditions (namely three applications per week).
The marks of general satisfaction with the cosmetic composition oscillated between 16.9 and 18.3/20.
The marks of general satisfaction with the cosmetic composition oscillated between 16 and 17.3/20.

[3] = tested on: nails; assay: In vivo comparison of hexanal composition with citral composition, one hand each; parameters: species or system people; conditions: same concentrations, panel of 22, four weeks
From the text: The composition of example 1 and also a composition 1a identical to that of example 1, but in which the hexanal has been replaced by citral, in the same concentrations, were the subject of in vivo tests on a new panel of 22 people under the same conditions as those of the tests from example 1. Each person applied the composition with hexanal to the nails of one hand, and the composition with citral to the nails of the other hand. The right hand/left hand choice was random.

[4] = 0.01% by weight in composition, aging tests relative to controls
[5] = 0.01% in composition, one month in an oven at 45° C., relative to controls at room temperature in the dark

Yellowing [1, 4] | Yellowing [1, 5] | Compound | further results
did not exhibit yellowing | – | CCCCCCCCCCC=O [undecanal] | –
– | exhibited yellowing | C=CCCCCCCCCC=O [undecylenic aldehyde, 10-undecenal] | –

The next lines start with the compound.

Compound | Yellowing [1, 4] | Yellowing [1, 5] | further results
CCCCCCCCC=O [nonanal] | did not exhibit yellowing | – | –
methylbutyraldehyde [reference compound] | – | exhibited yellowing | –
CCCCC/C=C/CCC=O [trans-4-decenal] | did not exhibit yellowing | – | –
CCCCCC=O [hexanal] | did not exhibit yellowing | – | Subjects who noticed an overall improvement in the quality of their nails [2]: more than 90%; Superiority to citral in improvement of brittle nails [3]: +10%; Superiority to citral in improvement of nail hardness [3]: +8.5%; Superiority to citral in improvement of nail weakness [3]: +18%
